From patent US12208160B2, “Pharmaceutical compositions comprising coated API” (Catalent U.K. Swindon Zydis Limited, priority 2020, dated 2025)

Experiments:
[1] = Low volume dissolution of Acetaminophen raw material and coated Acetaminophen material; assay type: physicochemical; conditions: APAP
Method: This analytical method is used to determine the low volume dissolution of Acetaminophen raw material and coated Acetaminophen material. […] The following is the working standard 5-point calibration curve preparation for this Example. Calibration Point 1: Weigh accurately 50.0 mg of Acetaminophen reference standard into a 100 mL volumetric flask. Dissolve in approximately 80 mL of dissolution media and sonicate until fully dissolved. Dilute to volume with dissolution media mixing thoroughly. This is the calibration point 1 working standard solution (concentration: approximately 0.5 mg/mL). Calibration Point 2: Weigh accurately 100.0 mg of Acetaminophen reference standard into a 100 mL volumetric flask. Dissolve in approximately 80 mL of dissolution media and sonicate until fully dissolved. Dilute to volume with dissolution media mixing thoroughly. This is the calibration point 2 working standard solution (concentration: approximately 1.0 mg/mL). Calibration Point 3: Weigh accurately 200.0 mg of Acetaminophen reference standard into a 100 mL volumetric flask. Dissolve in approximately 80 mL of dissolution media and sonicate until fully dissolved. Dilute to volume with dissolution media mixing thoroughly. This is the calibration point 3 working standard solution (concentration: approximately 2.0 mg/mL). Calibration Point 4: Weigh accurately 500.0 mg of Acetaminophen reference standard into a 100 mL volumetric flask. Dissolve in approximately 80 mL of dissolution media and sonicate until fully dissolved. Dilute to volume with dissolution media mixing thoroughly. This is the calibration point 4 working standard solution (concentration: approximately 5.0 mg/mL). Calibration Point 5: Weigh accurately 550.0 mg of Acetaminophen reference standard into a 100 mL volumetric flask. Dissolve in approximately 80 mL of dissolution media and sonicate until fully dissolved (this standard solution may require slight heating to dissolve all Acetaminophen). If required, allow the solution to equilibrate to room temperature, dilute to volume with dissolution media and mix thoroughly. This is the calibration point 5 working standard solution (concentration: approximately 5.5 mg/mL). Acetaminophen raw material: Six samples are analyzed. […] The individual software potencies for each vessel will be input into the DissoPRO software at the start of experiment. Six samples are analyzed. For each sample, weigh accurately 125 mg of coated Acetaminophen material into a Pion low volume dissolution vessel. The individual software potencies for each vessel will be input into the DissoPRO software at the start of experiment. […] The Coated APAP has undergone coating at bench scale operation using the Resonance Acoustic Mixing manufacturing process. […] The slow release profile is indicative of achieving a successful coating and preventing the API from readily dissolving and therefore a taste masked API.

[2] = Mid Volume Dissolution (MVD) 60-Minute Profile of freeze-dried finished product; assay type: physicochemical; conditions: within ~5 mins; note to FIG. 26
Method: This analytical method is used to determine the mid-volume dissolution of freeze-dried finished products. The method employs a Distek small volume conversion kit. The method employs the Pion Rainbow Dynamic Dissolution Monitor (RDDM) at 75 rpm, with pH 7.2 phosphate buffer as a dissolution medium. Analysis is by fibre optic UV detection using the Pion μDISS Profiler with a UV detection under the 2nd derivative function using a 2 mm pathlength. Pathlength, dissolution media and wavelength range will vary depending on the API properties. […] A five-point calibration Curve is set up on the Pion software. The amount of API reference standard weighed will be dependent on the API. The following is an example for Ibuprofen:
As per USP <711>—A small, loose piece of non-reactive material, such as not more than a few turns on wire helix, may be attached to the freeze-dried tablets that would otherwise float. Add one freeze-dried tablet to each of the six dissolution vessels. The six probes will measure the absorbance of the API in the vessels and determine the % drug dissolved based on the calibration curve.
An additional methodology Mid Volume Dissolution (MVD) based on the 60-minute profile for the coated API has been developed to be able to directly compare dissolution profiles of the coated API with the resulting finished product units. […]

Row | % Acetaminophen dissolved ([1]; 0.0 minutes) [%] | % Acetaminophen dissolved ([1]; 5 minutes) [%] | % Acetaminophen dissolved ([1]; 10 minutes) [%] | % Acetaminophen dissolved ([1]; 15 minutes) [%] | % Acetaminophen dissolved ([1]; 20 minutes) [%] | % Acetaminophen dissolved ([1]; 25 minutes) [%] | % Acetaminophen dissolved ([1]; 30 minutes) [%] | equilibrium point (% dissolved) ([1]; within the first two minutes) | full release [2] [%] | SMILES
1 | 0 | 127 | 128 | 128 | 128 | 128 | 128 | over 100% | – | CC(=O)Nc1ccc(O)cc1 [Raw Material - AN190319, Acetaminophen]
2 | – | – | – | – | – | – | – | – | ~80 | CC(C)Cc1ccc(C(C)C(=O)O)cc1 (stereo not drawn) [Raw Material, Ibuprofen]
